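Briefly, cells in 96-well plates were exposed to five compound concentrations for 48 h, and endpoints were estimated by linear interpolation. At the TGI there is no net growth.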
Legend:
Assay in all cases: growth of human tumour cells (NCI), 48 h
[1] = tested on: MDA-MB-435
[2] = tested on: HOP-92 NSCLC
[3] = tested on: U251 CNS
[4] = tested on: NCI-H460 lung
[5] = tested on: RXF 393 renal
[6] = tested on: OVCAR-3 ovarian
[7] = tested on: SF-295 CNS
[8] = tested on: SF-539 CNS
[9] = tested on: UO-31 renal
[10] = tested on: MOLT-4 leukemia
[11] = tested on: HCT-15 colon
[12] = tested on: K-562 leukemia
[13] = tested on: SNB-19 CNS

| Compound | TGI [1] [µM] | TGI [2] [µM] | TGI [3] [µM] | TGI [4] [µM] | TGI [5] [µM] | TGI [6] [µM] | TGI [7] [µM] | TGI [8] [µM] | TGI [9] [µM] | TGI [10] [µM] | TGI [11] [µM] | TGI [12] [µM] | TGI [13] [µM] |
| --- | --- | --- | --- | --- | --- | --- | --- | --- | --- | --- | --- | --- | --- |
| CNc1ccc2c(c1)Cc1ccccc1-2 | 69.3 | 64.1 | > 100 | > 100 | > 100 | 62.5 | > 100 | > 100 | > 100 | 98.7 | > 100 | > 100 | > 100 |
| COc1cc(/C=C/c2cc(=O)cc(/C=C/c3ccc(O)c(OC)c3)o2)ccc1O | > 100 | > 100 | > 100 | > 100 | > 55.2 | > 100 | > 100 | > 100 | > 100 | > 100 | > 100 | > 100 | > 100 |
| COc1ccc(/C=N/Nc2nc3ccccc3c(=O)n2-c2ccccc2)c(OCc2ccccc2)c1 | > 100 | > 100 | > 100 | > 100 | > 100 | > 100 | > 100 | > 100 | > 100 | > 100 | > 100 | > 100 | > 100 |
| CCN(CC(=O)O)CC(=O)O | > 100 | > 100 | > 100 | > 100 | > 100 | > 100 | > 100 | > 100 | > 100 | > 100 | > 100 | > 100 | > 100 |
| C/C(=N\Nc1nc2ccccc2s1)c1cccnn1 | > 100 | 14.3 | > 100 | 15.1 | 84.5 | > 100 | 7.2 | 17.7 | 71.2 | > 100 | > 100 | > 100 | > 100 |
| COc1cc2nc(-c3c(F)cccc3F)n(Cc3c(F)cccc3F)c2cc1Cc1c(F)cccc1F | > 100 | > 30.8 | > 100 | > 100 | > 28.9 | > 100 | > 100 | > 100 | > 100 | > 100 | > 100 | > 100 | > 100 |
| CC(C)Cc1c(C#N)c(C#N)c(N)n1Cc1ccccc1 | > 100 | > 100 | > 100 | – | > 100 | > 100 | > 100 | > 100 | > 100 | > 100 | > 100 | > 100 | > 100 |
| c1ccc(-c2ccc(N=NN3CCCC3)cc2)cc1 | > 100 | > 100 | > 100 | > 100 | > 100 | > 100 | > 100 | > 100 | > 100 | > 100 | > 100 | > 100 | > 100 |
| CC1=NC(C)(C)N(O)C1(C)C | > 100 | > 100 | > 100 | > 100 | > 100 | > 100 | > 100 | > 100 | > 100 | > 100 | > 100 | > 100 | > 100 |
| CC(C)(C)OC(=O)c1ccc(NCc2cc(O)ccc2O)cc1 | 16.1 | 3.4 | 9.32 | > 73.8 | 3.35 | 3.9 | 29.3 | 2.73 | 2.51 | 11.2 | 3.12 | 38.1 | 38.8 |
| O=CN(O)CC(=O)O | > 100 | > 100 | > 100 | > 100 | > 100 | > 100 | > 100 | > 100 | > 100 | > 100 | > 100 | > 100 | > 100 |
| CCOC1NC(=O)c2ccccc21 (stereo not given) | > 100 | > 100 | > 100 | > 100 | > 100 | > 100 | > 100 | > 100 | > 100 | > 100 | > 100 | > 100 | > 100 |
| COC(=O)[C@H]1C=C[C@H](OC2OC(COC(C)=O)C(OC(C)=O)C(OC(C)=O)C2OC(C)=O)n2c(=O)n(-c3ccccc3)c(=O)n21 (stereo not given in full) | 16.6 | 3.9 | 27.9 | 10.5 | 3.73 | 11.3 | 26.9 | 4.44 | 4.96 | 6.16 | 3.55 | 4.91 | 31.3 |
| Cc1cc2c(cc1Cl)SC(NNc1cnc3ccccc3n1)=NS2(=O)=O | > 100 | 77.2 | > 100 | > 100 | > 100 | > 100 | > 100 | 87 | > 100 | 63.5 | > 100 | > 100 | > 100 |
| O=c1c(Cc2ccccc2)c(-c2ccccc2)[nH]n1C1=NCCN1 | > 100 | > 100 | > 100 | > 100 | > 100 | > 100 | > 100 | > 100 | > 100 | > 100 | > 100 | > 100 | > 100 |
| COc1ccc(N2C(=O)C3c4[nH]c5ccccc5c4C4C(C)CCCC4C3C2=O)cc1 (stereo not given) | > 30.2 | > 100 | > 100 | > 100 | > 72.6 | > 100 | > 100 | > 82.8 | > 100 | > 100 | > 100 | > 100 | > 100 |
| Cc1ccc(-n2cc(-c3ccc(Cl)cc3)c3c2N=CN2NC(c4ccco4)=NC32)cc1 (stereo not given) | > 100 | 9.88 | 20.8 | > 100 | 30.7 | 73.8 | 27.8 | 51.3 | 47.5 | – | > 100 | > 100 | 42.6 |
| C(=N/Nc1ccc(-c2nc3ccccc3[nH]2)cc1)/c1c(-c2ccccc2)[nH]c2ccccc12 | 0.785 | > 100 | 8.69 | 32.3 | > 100 | 0.591 | 12.7 | 55.2 | > 100 | > 100 | > 100 | 11.9 | – |

| Compound | TGI [1] [µM] | TGI [2] [µM] | TGI [3] [µM] | TGI [4] [µM] | TGI [5] [µM] | TGI [6] [µM] | TGI [7] [µM] | TGI [8] [µM] | TGI [9] [µM] | TGI [10] [µM] | TGI [11] [µM] | TGI [12] [µM] | TGI [13] [µM] |
| --- | --- | --- | --- | --- | --- | --- | --- | --- | --- | --- | --- | --- | --- |
| COC(=O)c1sc2ncc3c(c2c1N)CC(C)CC3 (stereo not given) | > 100 | > 100 | > 100 | > 100 | > 100 | > 100 | > 100 | > 100 | > 100 | > 100 | > 100 | > 100 | > 100 |
| O=C(/C=C1\C[C@H]2C=Nc3ccccc3C(=O)N2C1)NCCCCCNC(=O)/C=C1\C[C@H]2C=Nc3ccccc3C(=O)N2C1 | 19 | 16.1 | 9.05 | 36.6 | 11.6 | 14.2 | 33 | > 49.9 | 3.8 | > 100 | 10.6 | > 51.9 | 31.1 |
| COP(=O)(CC(=O)C1OC(OCc2ccccc2)C(OCc2ccccc2)C(OCc2ccccc2)C1OCc1ccccc1)OC (stereo not given) | 27.9 | 85.7 | > 100 | 38.4 | 19.4 | > 100 | > 100 | 40.7 | 7.1 | > 100 | > 100 | > 100 | > 100 |
| Nc1n[nH]c2ccccc12 | > 100 | > 100 | > 100 | > 100 | > 100 | > 100 | > 100 | > 100 | > 100 | > 100 | > 100 | > 100 | > 100 |
| COC(=O)C1=C(C)N2[C@H](C(=O)O)CS[C@@]2(C)[C@H](C(=O)OC)[C@H]1c1cccc([N+](=O)[O-])c1 | > 100 | > 100 | > 100 | > 100 | > 100 | > 100 | > 100 | > 100 | > 100 | > 100 | > 100 | > 100 | > 100 |
| Cc1cn(C2CC(OC(c3ccccc3)(c3ccccc3)c3ccccc3)C(COC(c3ccccc3)(c3ccccc3)c3ccccc3)O2)c(=O)[nH]c1=O (stereo not given) | > 100 | 83.6 | – | > 100 | > 100 | > 100 | > 100 | > 100 | > 100 | > 100 | > 100 | > 100 | > 100 |
| CC(C)(C)c1ccc2c(c1)OCc1n[nH]c(n1)COc1cc(C(C)(C)C)ccc1OCCOCCO2 | 11.5 | 14.8 | 13.7 | 12.7 | 4.56 | 7.47 | 12.5 | 21.5 | 13.1 | 17.6 | 18.3 | > 100 | 13.4 |
| CC[P+](C#Cc1ccccc1)(c1ccccc1)c1ccccc1 | 2.83 | 5.9 | 4.48 | 11.2 | 4.39 | 4.55 | 21.1 | 4.01 | 27 | 3.93 | 17.7 | 0.74 | 17.5 |
| O=[N+]([O-])c1ccc2nc3c(nc2c1)-c1c2ccccc2cc2cccc-3c12 | > 83.9 | 58 | > 66 | > 100 | 63.6 | 51.7 | 59.5 | 40.5 | > 70.9 | 31.7 | > 100 | > 85.9 | > 54.5 |
| O=C(CN=C(CN(c1ccccc1)c1ccccc1)Oc1c(Cl)cc(Cl)cc1Cl)n1cnc2ccccc21 | > 100 | > 100 | > 100 | > 100 | 25.6 | > 100 | > 100 | > 100 | – | > 100 | > 100 | > 100 | > 100 |
| COC(=O)C(CCSC)NC(=O)CSc1nnc(COc2ccc(Cl)cc2)n1-c1ccccc1 (stereo not given) | 34.3 | 34.6 | 30.9 | 29.8 | 35.4 | 5.37 | 32.3 | 33.7 | 13.7 | 43 | 39.8 | 69.9 | 47.1 |
| CC(O)(C(=O)N(O)c1ccc(Cl)cc1)c1ccc(Cl)cc1 (stereo not given) | 87.8 | 48.3 | 64.4 | > 100 | 95.2 | 72.8 | 92.4 | > 100 | 42.4 | 42.9 | 65.7 | 43.1 | > 100 |
| O=C(O)c1cc2ccccc2c(S(=O)(=O)O)c1O | > 100 | > 100 | > 100 | > 100 | > 100 | > 100 | > 100 | > 100 | > 100 | > 100 | > 100 | > 100 | > 100 |
| CCN(C(=O)N[C@H](C(=O)N[C@@H](C)C(=O)OC)C(C)C)c1ccccc1 | 52.2 | 78.6 | 86.6 | 66.2 | > 100 | > 100 | > 100 | 48.4 | > 100 | > 100 | > 100 | > 100 | > 100 |
| O=c1cc(-c2ccccc2F)[nH]c2cc3c(cc12)OCO3 | 0.0217 | > 100 | 22.5 | > 32.3 | > 100 | 0.779 | 9.84 | 0.357 | > 100 | > 18.3 | 4.22 | > 15.7 | 6.95 |
| CCOC(=O)Cc1nn2c(=O)cc(C)nc2s1 | > 100 | > 100 | > 100 | > 100 | > 100 | > 100 | > 100 | > 100 | > 100 | > 100 | > 100 | > 100 | > 100 |
| CN(C)c1nc(=NCc2ccccn2)ss1 | > 10 | > 10 | > 10 | > 10 | > 10 | > 10 | > 10 | > 10 | > 10 | 4.91 | > 10 | > 9.63 | > 10 |
